One may read the MIC as the smallest concentration in the dilution series that meets the test's criterion for growth inhibition. As a reminder, the MIC50 is the lowest concentration that inhibits either 50% of growth or 50% of the strains tested, depending on the study. A higher MIC50 goes with weaker potency. For orientation: IC50 means the midpoint of a concentration-inhibition curve.

Here are results for twelve compounds from ChEMBL document CHEMBL5532742, “Design and Synthesis of the Linezolid Bioisosteres to Resolve the Serotonergic Toxicity Associated with Linezolid” (ACS Med Chem Lett, 2024).

In data set [1] the test system is Mycobacterium tuberculosis. The experiment in a line: Antimycobacterial activity against Mycobacterium tuberculosis H37Rv assessed as prevention of bacterial growth measured after 7 days by alamar blue assay. It is filed as functional. As to conditions: 168 h, time 7 day. For orientation: Alamar Blue is a resazurin reagent that responds to reducing activity.
The test system of data set [2] is Mycobacterium tuberculosis. The data set is described as follows: Antimycobacterial activity against Mycobacterium tuberculosis clinical isolate without mutation incubated for 1 week by resazurin dye based fluorescence analysis. It is filed as functional. Conditions: time 1 weeks.
In data set [3] the target is T1, Amine oxidase [flavin-containing] A (Homo sapiens, UniProt P21397).
T1 sequence (P21397 whole entry): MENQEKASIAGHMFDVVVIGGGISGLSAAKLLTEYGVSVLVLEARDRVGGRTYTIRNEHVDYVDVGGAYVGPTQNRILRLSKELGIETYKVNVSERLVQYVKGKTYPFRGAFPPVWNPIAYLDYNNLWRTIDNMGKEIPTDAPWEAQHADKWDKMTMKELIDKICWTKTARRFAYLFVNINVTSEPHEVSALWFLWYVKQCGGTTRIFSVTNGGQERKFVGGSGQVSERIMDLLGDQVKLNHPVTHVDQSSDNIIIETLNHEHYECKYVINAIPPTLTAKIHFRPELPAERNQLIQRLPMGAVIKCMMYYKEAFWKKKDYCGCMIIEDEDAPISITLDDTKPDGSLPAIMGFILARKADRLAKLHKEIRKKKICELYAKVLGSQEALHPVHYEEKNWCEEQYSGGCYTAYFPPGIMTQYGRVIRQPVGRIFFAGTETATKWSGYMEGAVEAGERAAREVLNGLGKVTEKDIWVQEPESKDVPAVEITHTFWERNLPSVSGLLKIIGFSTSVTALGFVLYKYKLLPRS
The experiment in a line: Inhibition of human recombinant MAO-A using kynuramine as substrate. It is filed as toxicity.

Data set [4] deals with T2, Amine oxidase [flavin-containing] B (Homo sapiens, UniProt P27338).
T2 sequence (P27338 whole entry): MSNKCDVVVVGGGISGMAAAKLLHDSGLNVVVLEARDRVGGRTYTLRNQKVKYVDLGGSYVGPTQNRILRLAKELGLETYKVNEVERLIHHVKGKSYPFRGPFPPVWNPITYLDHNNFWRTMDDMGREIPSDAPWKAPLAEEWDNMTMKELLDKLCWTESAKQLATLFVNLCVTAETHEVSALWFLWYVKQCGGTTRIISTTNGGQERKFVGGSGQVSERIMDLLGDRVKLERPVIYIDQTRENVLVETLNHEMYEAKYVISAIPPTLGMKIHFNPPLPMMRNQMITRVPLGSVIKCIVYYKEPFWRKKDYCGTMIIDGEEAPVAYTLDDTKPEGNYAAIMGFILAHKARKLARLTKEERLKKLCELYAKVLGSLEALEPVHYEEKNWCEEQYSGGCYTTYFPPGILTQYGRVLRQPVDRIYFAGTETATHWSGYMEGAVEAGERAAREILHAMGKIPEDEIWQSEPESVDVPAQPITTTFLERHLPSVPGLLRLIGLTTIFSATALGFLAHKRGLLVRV
The experiment in a line: Inhibition of human recombinant MAO-B using benzylamine as substrate. It is filed as toxicity.

The next data set has as its target T3, MAO-B (Homo sapiens, UniProt P27338).
T3 sequence (P27338 whole entry): T2 sequence (P27338 whole entry)
The experiment in a line: Potency index, ratio of test compound IC50 to linezolid IC50 for inhibition of human recombinant MAO-B using benzylamine as substrate. It is filed as toxicity. As to conditions: probe benzylamine, read-out: Ratio IC50.

The target in data set [5] is T1, Amine oxidase [flavin-containing] A. The experiment in a line: Inhibition of human recombinant MAO-A using tyramine as substrate by ELISA. It is filed as toxicity.
Data set [6] addresses T2, Amine oxidase [flavin-containing] B. The data set is described as follows: Inhibition of human recombinant MAO-B using tyramine as substrate by ELISA. It is filed as toxicity. (In general: An ELISA detects its analyte on a solid surface through an enzyme-linked reagent.)
The test system of another data set is Staphylococcus aureus. The data set is described as follows: Antibacterial activity against Staphylococcus aureus ATCC 25923. It is filed as functional.

Converted amounts (≈) assume the structure as drawn. “And” between values parts separate entries of the source, which are not always exact repeats. Identical values can stand only once.

With `O=C1O[C@@H](CNS(=O)(=O)c2cccs2)CN1c1ccc(N2CCOCC2)c(F)c1`, the MIC in data set [1] amounted to 1.76 µM (≈ 0.777 µg/mL). The compound also returned an MIC50 in data set [2] of 4.01 µM (≈ 1.77 µg/mL). In addition, the IC50 in data set [3] was over 40 µM; in data set [4], 27.3 µM.

For `O=C(NC[C@H]1CN(c2ccc(N3CCOCC3)c(F)c2)C(=O)O1)C1CC1`, the MIC in data set [1] was found to be 2.08 µM (≈ 0.756 µg/mL). Also, in data set [2], the MIC50 stood at 1.11 µM (≈ 0.403 µg/mL). The IC50 is over 40 µM in data set [3] and 30.3 µM in data set [4].

With `O=C(NC[C@H]1CN(c2ccc(N3CCOCC3)c(F)c2)C(=O)O1)c1cccs1`, in data set [1], the MIC came out at 1.92 µM (≈ 0.778 µg/mL). In data set [2], this compound came in with an MIC50 of 3.12 µM (≈ 1.27 µg/mL). For the same compound, the IC50 in data set [3] was over 40 µM; in data set [4] it was 33.1 µM.

On to `CCS(=O)(=O)NC[C@H]1CN(c2ccc(N3CCOCC3)c(F)c2)C(=O)O1`, for which, in data set [1], the MIC came to 2.01 µM (≈ 0.779 µg/mL). This compound also returned an MIC50 in data set [2] of 0.74 µM (≈ 0.287 µg/mL). The half-maximal inhibitory concentration (IC50) in data set [3] and in data set [4] was over 40 µM throughout. For the same compound, the selectivity ratio on MAO-B was 64.6.

As to `O=C1O[C@H](Cn2ccnn2)CN1c1ccc(N2CCOCC2)c(F)c1`, the figures for the half-maximal inhibitory concentration (IC50) in data set [5] and in data set [6] were 31.9 µM and 15.4 µM, respectively. For the same compound, the MIC with Staphylococcus aureus came out at 1 µg/mL (≈ 2.88 µM).

As for `CS(=O)(=O)NC[C@H]1CN(c2ccc(N3CCOCC3)c(F)c2)C(=O)O1`, the MIC in data set [1] turned out to be 2.14 µM (≈ 0.799 µg/mL). The compound also displayed an MIC50 in data set [2] of 1.11 µM (≈ 0.414 µg/mL). The IC50 is over 40 µM in data set [3] and 2.95 µM in data set [4].

For `CCCCS(=O)(=O)NC[C@H]1CN(c2ccc(N3CCOCC3)c(F)c2)C(=O)O1`, the MIC in data set [1] was 1.87 µM and > 25 µg/mL. Besides, the IC50 in data set [3] was over 40 µM; in data set [4], 25.4 µM.

For the compound `CC(C)(C)c1ccc(S(=O)(=O)NC[C@H]2CN(c3ccc(N4CCOCC4)c(F)c3)C(=O)O2)cc1`, in data set [1], the MIC was 1.58 µM and > 25 µg/mL. Also, the IC50 in data set [3] stood at 19.3 µM; in data set [4] it was 13.2 µM.

Consider `O=C1O[C@@H](CNS(=O)(=O)C2CC2)CN1c1ccc(N2CCOCC2)c(F)c1`, for which the MIC in data set [1] was 1.95 µM and > 25 µg/mL. The results for the IC50 in data set [3] and in data set [4] were over 40 µM and 11.4 µM, respectively.

For `NNC(=O)c1ccncc1` [ISONIAZID], in data set [2], the MIC50 was under 0.2 µM.

As for `CC(=O)NC[C@H]1CN(c2ccc(N3CCOCC3)c(F)c2)C(=O)O1` [LINEZOLID], in data set [1], the MIC came out at 2.31 µM (≈ 0.779 µg/mL). The compound also gave an MIC50 in data set [2] of 0.34 µM (≈ 0.115 µg/mL).

Compound `CO[C@H]1/C=C/O[C@@]2(C)Oc3c(C)c(O)c4c(O)c(c(/C=N/N5CCN(C)CC5)c(O)c4c3C2=O)NC(=O)/C(C)=C\C=C\[C@H](C)[C@H](O)[C@@H](C)[C@@H](O)[C@@H](C)[C@H](OC(C)=O)[C@@H]1C` [RIFAMPIN] had an MIC50 in data set [2] of under 0.04 µM.
